Measurements from patent US20190275012A9, “SUBSTITUTED THIAZOLO-PYRIDINE COMPOUNDS AS MALT1 INHIBITORS” (Lupin Limited, priority 2016, published 2019).

How the values were obtained:
[1] = biological target: T1, full length MALT1 enzyme (Homo sapiens, UniProt Q9UDY8); assay: MALT1 biochemical assay (fluorescence based, Ac-Leu-Arg-Ser-Arg-AMC cleavage); details: full length MALT1 protein, 2 h pre-incubation at RT, tetrapeptide substrate Ac-Leu-Arg-Ser-Arg-AMC, read-out: Malt 1 inhibition IC50
T1 construct: a fluorescence based assay with full length MALT1 enzyme
T1 sequence (Q9UDY8 1-824): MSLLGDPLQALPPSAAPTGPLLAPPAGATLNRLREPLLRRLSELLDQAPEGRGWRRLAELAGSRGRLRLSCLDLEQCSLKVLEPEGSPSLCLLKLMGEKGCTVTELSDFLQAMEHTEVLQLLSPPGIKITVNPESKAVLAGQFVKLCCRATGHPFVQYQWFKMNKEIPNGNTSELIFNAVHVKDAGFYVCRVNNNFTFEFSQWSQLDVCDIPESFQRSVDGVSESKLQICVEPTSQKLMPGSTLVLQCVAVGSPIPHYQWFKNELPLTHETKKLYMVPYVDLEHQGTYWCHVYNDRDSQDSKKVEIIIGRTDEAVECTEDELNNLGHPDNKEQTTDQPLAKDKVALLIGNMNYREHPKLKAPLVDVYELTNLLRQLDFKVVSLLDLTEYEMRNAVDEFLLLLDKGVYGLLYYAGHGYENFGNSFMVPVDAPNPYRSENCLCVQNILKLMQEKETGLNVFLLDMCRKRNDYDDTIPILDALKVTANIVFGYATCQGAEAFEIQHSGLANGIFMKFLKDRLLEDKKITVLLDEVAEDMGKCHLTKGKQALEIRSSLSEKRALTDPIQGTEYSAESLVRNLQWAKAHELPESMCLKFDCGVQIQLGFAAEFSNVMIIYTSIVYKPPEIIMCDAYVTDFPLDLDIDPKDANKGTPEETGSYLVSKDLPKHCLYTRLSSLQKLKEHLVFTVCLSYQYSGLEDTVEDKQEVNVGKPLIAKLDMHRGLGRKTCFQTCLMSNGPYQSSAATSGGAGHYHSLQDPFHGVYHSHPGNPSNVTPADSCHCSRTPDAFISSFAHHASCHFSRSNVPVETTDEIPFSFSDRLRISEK
Summary of the method: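 Full-length MALT1 (100-300 ng/well) was pre-incubated with compound for 2 h at RT, then 100 μM Ac-LRSR-AMC was added for 4-12 h. Buffer was 50 mM MES, 150 mM NaCl, 0.1% CHAPS, 1 M ammonium citrate, 10 mM DTT, pH 7, with 0.5% DMSO. IC50 was derived from AMC fluorescence (ex 360/em 460 nm).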

[2] = test system: NF-kB transcriptional activity in HEK-293-NF-kB-Luc cell line overexpressing MALT1; assay: NF-kB reporter assay (luciferase, MALT1 stably overexpressed); format: cell-based; details: Homo sapiens, 24 h, HEK-293-NF-kB-Luc cells stably overexpressing MALT1, 24 h treatment, Bright Glo luminescence; read-out: NF-kB inhibition IC50
Summary of the method: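 Inhibition of NF-κB activity was expressed relative to 0.1% DMSO wells, from luminescence after 10 min Bright Glo at ambient temperature. Compounds had been applied for 24 h to adhered MALT1-overexpressing HEK-293 NF-κB luciferase reporter cells.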

[3] = test system: OCI-Ly-10 cells; assay: Anticancer assay (14 days), cell viability by CCK-8; format: cell-based; details: Homo sapiens, OCI-Ly10, 336 h, 14 days treatment, fresh treatment every 5th day, CCK-8 viability, read-out: Ly-10 (14d) inhibition IC50
Summary of the method: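 OCI-Ly-10 cells in IMDM + 20% FBS exposed to compound for 13–15 days, with media and compound refreshed every 5th day. Viability by CCK-8 absorbance at 450 nm (650 nm background); % inhibition versus 0.1% DMSO medium control.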

IC50 [1]	IC50 [3]	Structure (SMILES)	IC50 [2]
1 to 50 nM	0.1 to 25 nM	Cc1nc2c(C(C3CC3)N(C)C)c(NC(=O)Nc3cnc(-n4nccn4)c(C(F)(F)F)c3)cnc2s1 (single isomer, unassigned) [Compound 76b, 1-(6-(2H-1,2,3-Triazol-2-yl)-5-(trifluoromethyl)pyridin-3-yl)-3-(7-(cyclopropyl(dimethylamino)methyl)-2-methylthiazolo[5,4-b]pyridin-6-yl)urea]	1 to 100 nM
1 to 50 nM	26 to 100 nM	COC(c1c(NC(=O)Nc2cnc(-n3nccn3)c(Cl)c2)cnc2sc(C)nc12)C(C)C (single isomer, unassigned) [Compound 79b, 1-(5-Chloro-6-(2H-1,2,3-triazol-2-yl)pyridin-3-yl)-3-(7-(1-methoxy-2-methylpropyl)-2-methylthiazolo[5,4-b]pyridin-6-yl)urea]	1 to 100 nM
1 to 50 nM	26 to 100 nM	COc1nc(-n2nccn2)c(C(F)(F)F)cc1NC(=O)Nc1cnc2sc(C)nc2c1C(OC)C(C)C (single isomer, unassigned) [Compound 80b, 1-(7-(1-Methoxy-2-methylpropyl)-2-methylthiazolo[5,4-b]pyridin-6-yl)-3-(2-methoxy-6-(2H-1,2,3-triazol-2-yl)-5-(trifluoromethyl)pyridin-3-yl)urea]	1 to 100 nM
1 to 50 nM	26 to 100 nM	COc1nc(-n2nccn2)c(Cl)cc1NC(=O)Nc1cnc2sc(C)nc2c1C(OC)C(C)C (single isomer, unassigned) [Compound 81b, 1-(5-Chloro-2-methoxy-6-(2H-1,2,3-triazol-2-yl)pyridin-3-yl)-3-(7-(1-methoxy-2-methylpropyl)-2-methylthiazolo[5,4-b]pyridin-6-yl)urea]	1 to 100 nM
1 to 50 nM	101 to 250 nM	COC(c1ccc(F)cc1)c1c(NC(=O)Nc2cnc(-n3nccn3)c(C(F)(F)F)c2)cnc2sc(C)nc12 (single isomer, unassigned) [Compound 85a, 1-(6-(2H-1,2,3-Triazol-2-yl)-5-(trifluoromethyl)pyridin-3-yl)-3-(7-((4-fluorophenyl)(methoxy)methyl)-2-methylthiazolo[5,4-b]pyridin-6-yl)urea]	1 to 100 nM
1 to 50 nM	26 to 100 nM	COC(C)(c1c(NC(=O)Nc2ccc(-n3nccn3)c(C(F)(F)F)c2)cnc2sc(C)nc12)C1CC1 (single isomer, unassigned) [Compound 94b, 1-(4-(2H-1,2,3-triazol-2-yl)-3-(trifluoromethyl)phenyl)-3-(7-(1-cyclopropyl-1-methoxyethyl)-2-methylthiazolo[5,4-b]pyridin-6-yl)urea]	1 to 100 nM
1 to 50 nM	0.1 to 25 nM	COC(c1c(NC(=O)Nc2cnc(-n3nccn3)c(C(F)(F)F)c2)cnc2sc(C)nc12)C(F)(F)F (single isomer, unassigned) [Compound 95b, 1-(6-(2H-1,2,3-triazol-2-yl)-5-(trifluoromethyl)pyridin-3-yl)-3-(2-methyl-7-(2,2,2-trifluoro-1-methoxyethyl)thiazolo[5,4-b]pyridin-6-yl)urea]	1 to 100 nM
1 to 50 nM	0.1 to 25 nM	COC(C)c1c(NC(=O)Nc2ccc(-n3nccn3)c(C(F)(F)F)c2)cnc2sc(C)nc12 (single isomer, unassigned) [Compound 143b, 1-(4-(2H-1,2,3-Triazol-2-yl)-3-(trifluoromethyl)phenyl)-3-(7-(1-methoxyethyl)-2-methylthiazolo[5,4-b]pyridin-6-yl)urea]	1 to 100 nM
1 to 50 nM	0.1 to 25 nM	COC(c1c(NC(=O)Nc2ccc(-n3nccn3)c(Cl)c2)cnc2sc(C)nc12)C1CC1 (single isomer, unassigned) [Compound 144b, 1-(3-Chloro-4-(2H-1,2,3-triazol-2-yl)phenyl)-3-(7-(cyclopropyl(methoxy)methyl)-2-methylthiazolo[5,4-b]pyridin-6-yl)urea]	1 to 100 nM
1 to 50 nM	0.1 to 25 nM	CCC(OC)c1c(NC(=O)Nc2cnc(-n3nccn3)c(Cl)c2)cnc2sc(C)nc12 (single isomer, unassigned) [Compound 145b, 1-(5-Chloro-6-(2H-1,2,3-triazol-2-yl)pyridin-3-yl)-3-(7-(1-methoxypropyl)-2-methylthiazolo[5,4-b]pyridin-6-yl)urea]	1 to 100 nM
1 to 50 nM	0.1 to 25 nM	CCC(OC)c1c(NC(=O)Nc2ccc(-n3nccn3)c(C(F)(F)F)c2)cnc2sc(C)nc12 (single isomer, unassigned) [Compound 147b, 1-(4-(2H-1,2,3-Triazol-2-yl)-3-(trifluoromethyl)phenyl)-3-(7-(1-methoxypropyl)-2-methylthiazolo[5,4-b]pyridin-6-yl)urea]	1 to 100 nM
1 to 50 nM	26 to 100 nM	COC(c1c(NC(=O)Nc2ccc(-n3nccn3)c(C(F)(F)F)c2)cnc2sc(C)nc12)C1CC1 (single isomer, unassigned) [Compound 153b, 1-(4-(2H-1,2,3-Triazol-2-yl)-3-(trifluoromethyl)phenyl)-3-(7-(cyclopropyl(methoxy)methyl)-2-methylthiazolo[5,4-b]pyridin-6-yl)urea]	1 to 100 nM
1 to 50 nM	0.1 to 25 nM	COC(C)c1c(NC(=O)Nc2ccc(-n3nccn3)c(Cl)c2)cnc2sc(C)nc12 (single isomer, unassigned) [Compound 158b, 1-(3-Chloro-4-(2H-1,2,3-triazol-2-yl)phenyl)-3-(7-(1-methoxyethyl)-2-methylthiazolo[5,4-b]pyridin-6-yl)urea]	1 to 100 nM
1 to 50 nM	26 to 100 nM	CCOC(C)c1c(NC(=O)Nc2cnc(-n3nccn3)c(C(F)(F)F)c2)cnc2sc(C)nc12 (single isomer, unassigned) [Compound 165b, 1-(6-(2H-1,2,3-Triazol-2-yl)-5-(trifluoromethyl)pyridin-3-yl)-3-(7-(1-ethoxyethyl)-2-methylthiazolo[5,4-b]pyridin-6-yl)urea]	1 to 100 nM
51 to 100 nM	251 to 500 nM	COC(C)c1c(NC(=O)Nc2cc(-n3nccn3)cc(C(F)(F)F)c2)cnc2sc(C)nc12 (single isomer, unassigned) [Compound 217b, (S) or (R)-1-(3-(2H-1,2,3-triazol-2-yl)-5-(trifluoromethyl)phenyl)-3-(7-(1-methoxyethyl)-2-methylthiazolo[5,4-b]pyridin-6-yl)urea]	1 to 100 nM
1 to 50 nM	101 to 250 nM	COc1ncc(NC(=O)Nc2cnc3sc(C)nc3c2C2CC2)cc1Cl [Compound 1, 1-(5-Chloro-6-methoxypyridin-3-yl)-3-(7-cyclopropyl-2-methylthiazolo [5,4-b]pyridin-6-yl)urea]	1 to 100 nM
1 to 50 nM	251 to 500 nM	COc1ccc(NC(=O)Nc2cnc3sc(C)nc3c2C2CC2)cc1Cl [Compound 2, 1-(3-Chloro-4-methoxyphenyl)-3-(7-cyclopropyl-2-methylthiazolo[5,4-b]pyridin-6-yl)urea]	501 to 1500 nM
1 to 50 nM	26 to 100 nM	Cc1nc2c(C3CC3)c(NC(=O)Nc3cnc(-n4nccn4)c(Cl)c3)cnc2s1 [Compound 9, 1-(5-Chloro-6-(2H-1,2,3-triazol-2-yl)pyridin-3-yl)-3-(7-cyclopropyl-2-methylthiazolo[5,4-b]pyridin-6-yl)urea]	1 to 100 nM
1 to 50 nM	101 to 250 nM	CCc1c(NC(=O)Nc2cnc(OC)c(Cl)c2)cnc2sc(C)nc12 [Compound 26, 1-(5-Chloro-6-methoxypyridin-3-yl)-3-(7-ethyl-2-methylthiazolo[5,4-b]pyridin-6-yl)urea]	101 to 500 nM
